Patent US20190336537A1, “GENERATING ATRIAL AND VENTRICULAR CARDIOMYOCYTE LINEAGES FROM HUMAN PLURIPOTENT STEM CELLS” (UNIVERSITY HEALTH NETWORK, priority 2016, published 2019)

Assays:
[1] = tested on: HES3 NKX2-5:GFP hESC-derived mesoderm; assay: Specification of mesoderm populations to an atrial fate by ROH or RA (day 20 flow cytometry and qRT-PCR); type: cell-based, human; details: for atrial specification (MLC2V+, IRX4, KCNJ3, NR2F2): treated days 3-5
Method: To determine if the ALDH^+ cells can synthesize RA, the ALDH^+PDGFRalpha^+ and ALDH^− PDGFRalpha^+ fractions were isolated from the day 4 3B/2A-induced population, and the cells were cultured as aggregates in retinol (ROH), RA, or DMSO (control) for 24 hr (FIGS. 3A and 3B). ALDH1A2 expression segregated to the ALDH^+ fraction, confirming the validity of aldefluor-based sorting strategy for isolating RALDH2-expressing cells (FIG. 3C).
(§1) For cardiac differentiation, we used a modified version of our embryoid body (EB)-based protocol (Kattman et al., 2011). hPSC populations at 80%-90% confluence were dissociated into single cells (TrypLE, ThermoFisher) and re-aggregated to form EBs in StemPro-34 media (ThermoFisher) containing penicillin/streptomycin (1%, ThermoFisher), L-glutamine (2 mM, ThermoFisher), trans-ferrin (150 μg/ml, ROCHE), ascorbic acid (50 μg/ml, Sigma), and monothioglycerol (50 μg/ml, Sigma), ROCK inhibitor Y-27632 (10 μM, TOCRIS) and rhBMP4 (1 ng/ml, R&D) for 18 h on an orbital shaker. At day 1, the EBs were transferred to mesoderm induction media consisting of StemPro-34 with above supplements (-ROCK inhibitor Y-27632) and rhBMP4, rhActivinA (R&D) and rhbFGF (5 ng/ml, R&D) at the indicated concentrations. At day 3, the EBs were harvested, washed with IMDM and transferred to cardiac mesoderm specification media consisting of StemPro-34, the Wnt inhibitor IWP2 (1 μM, TOCRIS) and rhVEGF (10 ng/mL, R&D). At day 5, the EBs were transferred to Stem Pro-34 with rhVEGF (5 ng/ml) for another 7 days and then to Stem Pro-34 media without additional cytokines for further 8 days. At day 20, HES3-NKX2-5gfp/w-derived cardiomyocytes were analyzed and isolated based on the expression of NKX2-5:GFP and SIRPa and a lack of CD90. Cardiomyocytes generated from non-transgenic hPSC lines were analyzed and isolated as SIRPa+CD90− populations. Media was changed every 3 days. Cultures were incubated in a low oxygen environment (5% CO2, 5% O2, 90% N2) for first 12 days and a normoxic environment (5% CO2) for the following 8 days in total of 20 days. The EBs were cultured in ultra-low attachment 6-well dishes (Corning) throughout the differentiation for maintaining suspension cultures.
Following optimization, either ATRA (0.5 μM, Sigma) or retinol (2 μM, Sigma) was included in the cardiac mesoderm specification media from days 3-5 for the generation of atrial cardiomyocytes.
(§2) Day 2-6 EBs were dissociated with TrypLE for 2-4 min at room temperature (RT). Day 20 EBs were dissociated by incubation in Collagenase type 2 (0.5 mg/ml, Worthington) in HANKs buffer overnight at RT followed by TrypLE treatment as described above. The following antibodies were used for staining: anti-PDGFRa-PE (R&D Systems, 3:50), anti-CD235a-APC (BD PharMingen, 1:100), antiSIRPa-PeCy7 (Biolegend, 1:1000), anti-CD90-APC (BD PharMingen, 1:1000), anticardiac isoform of CTNT (ThermoFisher Scientific, 1:2000), or anti-myosin light chain 2 (Abcam, 1:1000). For unconjugated primary antibodies, the following secondary antibodies were used for detection: goat anti-mouse IgG-APC (BD Pharmigen, 1:250), or donkey anti-rabbit IgG-PE (Jackson ImmunoResearch, 1:250). Detailed antibody information is described in Table 2.
The Aldefluor™ assay (STEMCELL Technologies) was performed according to the instruction provided by the manufacturer. Briefly, day 2-6 EBs were dissociated as described above. […] Stained cells were analyzed as described above. […]

[2] = tested on: MSC-iPS1 induced pluripotent stem cell line derived EBs; assay: ROH/RA response of MSC-iPS1-derived EBs (day 20 flow cytometry and qRT-PCR); type: cell-based, human; details: treated days 3 to 5
From the text: (§3) To determine if the approach for optimizing atrial and ventricular differentiation based on ALDH activity and CD235a expression is broadly applicable, we next used it to generate these cardiomyocyte populations from the HES2 human embryonic stem cell and the MSC-iPS1 induced pluripotent stem cell lines. Titration studies identified 5B/2A and 5B/6A as optimal for atrial and ventricular inductions, respectively, for HES2 cells and 4B/4A as optimal for ventricular induction for MSCiPSC1 cells (FIGS. 7A, 7B, 7E, and 7F; Mendeley http://dx.doi.org/10.17632/7z7d5v2c3w.1). Optimization of atrial induction from the MSC-iPSC1 cells was more challenging, as all cytokine combinations promoted the development of a substantial CD235a+ population. One interpretation of these patterns is that the MSC-iPS1 cells have a high level of endogenous Nodal/Activin A signaling, resulting in the development of some CD235a+ cells under all conditions. To test this, we added the Nodal/Activin A/transforming growth factor beta (TGF-beta) inhibitor SB-431542 (SB) from days 3 to 5 to cells induced with 4B/1A.
as §1, with “The EBs were cultured in ultra-low attachment 6-well dishes (Corning) throughout the differentiation for maintaining suspension cultures.” left out

[3] = tested on: HES2 human embryonic stem cell derived EBs; assay: ROH/RA response of HES2-derived EBs (day 20 flow cytometry and qRT-PCR); type: cell-based; details: treated days 3 to 5
From the text: as §3
as §1, with “The EBs were cultured in ultra-low attachment 6-well dishes (Corning) throughout the differentiation for maintaining suspension cultures.” left out

[4] = tested on: HES3 NKX2-5:GFP hESC-derived mesoderm; assay: Specification of mesoderm populations to an atrial fate by ROH or RA (day 20 flow cytometry and qRT-PCR); type: cell-based, human; details: day 4, 5B/4A induced
[5] = tested on: HES3 NKX2-5:GFP reporter hESC line derived cardiomyocytes; assay: qRT-PCR analysis of atrial and ventricular gene expression in day 20 hPSC-derived cardiomyocytes; type: cell-based, human; details: receptor-specific agonist added in place of RA to day 3 cultures
[6] = tested on: MSC-iPS1 induced pluripotent stem cell line derived EBs; assay: Flow cytometry of ALDH activity and CD235a in MSC-iPS1-derived EBs treated with SB-431542; type: cell-based, human; details: SB days 3 to 5, cells induced with 4B/1A
From the text: as §3, §2
The Aldefluor™ assay (STEMCELL Technologies) was performed according to the instruction provided by the manufacturer. […] Stained cells were analyzed as described above. […]

[7] = tested on: hPSC-derived day 2-6 EB mesoderm; assay: Aldefluor assay and flow cytometry of mesoderm (ALDH activity, PDGFRalpha, CD235a); type: cell-based, human
Method: as §2
The Aldefluor™ assay (STEMCELL Technologies) was performed according to the instruction provided by the manufacturer. Briefly, day 2-6 EBs were dissociated as described above. Cells were stained at a concentration of 2×10^6 cells/ml in the aldefluor assay buffer containing 0.1% BSA and BAAA substrate (0.12 mg/ml) for 60 min at 37 degrees C. The aldehyde dehydrogenase inhibitor DEAB ([…]) was added to the negative control sample. Cells were washed with cold media consisting of IMDM with 5% FCS and 10% aldefluor assay buffer. Cells were then stained with antibodies to cell surface markers at the concentrations indicated above in cold wash media for additional 20 min at 4 degrees C. Stained cells were analyzed as described above. During analyses, the cells were kept in cold wash media. For cell sorting, FCS was replaced with KnockOut™ serum replacement (ThermoFisher) to avoid any impact of serum-contained cy-tokines on the cell differentiations. Cells were maintained in StemPro-34 containing 10% aldefluor assay buffer throughout the sorting procedure. The sorted cells were collected and re-aggregated in StemPro-34 containing ROCK inhibitor (10 μM), IWP2 (0.5 μM) and rhVEGF (5 ng/ml).

[8] = tested on: HES3 NKX2-5:GFP hESC-derived day 20 EB populations; assay: Flow cytometric and immunostaining analyses of day 20 EB populations (CTNT, MLC2V, NKX2-5, COUPTFII); type: cell-based, human
Method: as §1, §2
For cell-surface marker analyses, cells were stained for 30 min at 4 degrees C. in FACS buffer consisting of PBS with 5% fetal calf serum (FCS) (Wisent) and 0.02% sodium azide. For intracellular staining, cells were fixed for 15 min at 4 degrees C. with 4% PFA in PBS followed by permeabilization using 90% methanol for 20 min at 4 degrees C. Cells were washed with PBS containing 0.5% BSA (Sigma) and stained with unconjugated primary antibodies in FACS buffer overnight at 4 degrees C. Stained cells were washed with PBS with 0.5% BSA and stained with secondary antibodies in FACS buffer for 1 h at 4 degrees C.
Stained cells were analyzed using the LSR II Flow cytometer (BD). For cell sorting, stained cells were kept in IMDM with 0.5% FCS and sorted using Influx (BD), FACSAriall (BD), MoFlo-XDP (BD) and FACSAria Fusion (BD) at the Sickids/UHN flow cytometry facility. Data were analyzed using FlowJo software (Tree Star).
Day 20 EBs were dissociated as described above and the cells plated onto 12 mm cover glasses (VWR) pre-coated with matrigel (25% v/v, BD). Cells were cultured for 3-5 days to enable the formation of adherent cell monolayers. Cells were fixed with
4% PFA in PBS for 10 min at room temperature and permeabilized with PBS containing 0.3% TritonX, 200 mM Glycine (Sigma) for 20 min at RT. Cells were blocked with PBS containing 10% FCS, 0.1% TritonX, and 2% BSA. […]

[9] = increasing Activin A from 2 to 12 ng/ml, BMP4 10 ng/mL
[10] = reducing Activin A, constant BMP4 (10 ng/mL)
[11] = reducing BMP4 from 10 to 3 ng/mL, Activin A 2 ng/mL

Molecule: CC1=C(/C=C/C(C)=C/C=C/C(C)=C/CO)C(C)(C)CCC1 [ROH, retinol]
- atrial specification (MLC2V+, IRX4, KCNJ3, NR2F2) ([1]; 3B/2A-induced EBs): responded to ROH and generated an atrial-like cardiomyocyte population
- atrial specification (MLC2V+, IRX4, KCNJ3, NR2F2) ([1]; 5B/12A-induced EBs): did not respond
- atrial specification (MLC2V+ frequency, IRX4, KCNJ3) ([1]; ALDH+PDGFRalpha+ fraction, day 4, 3B/2A induced, 24 hr treatment): generated an atrial-like cardiomyocyte population
- response of ALDH+ mesoderm (atrial expression profile) ([2]; MSC-iPS1, 4B/1A+SB induced): responded to both ROH and RA
- response of CD235a+ mesoderm (MLC2V content, MYL2, IRX4, KCNJ3, NR2F2) ([2]; MSC-iPS1, 4B/4A induced): Neither CD235a+ mesoderm population responded
- response of ALDH+ mesoderm (atrial expression profile) ([3]; HES2, 5B/2A induced): responded to both ROH and RA
- response of CD235a+ mesoderm (MLC2V content, MYL2, IRX4, KCNJ3, NR2F2) ([3]; HES2, 5B/6A induced): Neither CD235a+ mesoderm population responded
- atrial specification (MLC2V+, IRX4, NPPA, KCNJ3, NR2F2) ([4]; CD235a+ALDH− fraction): no response
- atrial specification (MLC2V+, IRX4, NPPA, KCNJ3, NR2F2) ([4]; CD235a−ALDH+ fraction): gave rise to an atrial-like cardio-myocyte population

Molecule: CC1(C)CCC(C)(C)c2cc(C(=O)Nc3ccc(C(=O)O)cc3)ccc21 [AM580]
- MYL2 expression in day 20 CTNT+ populations [5]: reduction

Molecule: CCCCCCCCc1ccc(-c2ccc(C(=O)O)cc2)cc1 [AC55649]
- MYL2 expression in day 20 CTNT+ populations [5]: reduction

Molecule: NC(=O)c1ccc(-c2nc(-c3ccc4c(c3)OCO4)c(-c3ccccn3)[nH]2)cc1 [SB-431542]
- CD235a+ cells [6]: reduction
- CTNT+MLC2V− cardiogenic potential of the mesoderm [6]: without affecting
- size of the ALDH+ population [6]: increase in the size

Molecule: O=C(O)c1ccc2cc(-c3ccc(O)c(C45CC6CC(CC(C6)C4)C5)c3)ccc2c1 [CD437]
- MYL2 expression in day 20 CTNT+ populations [5]: reduction

B1: Activin A: Recombinant human ActivinA (R&D), activates nodal signal transduction (protein, UniProt P08476 311-426, looked up)
Inhibin beta A chain: GLECDGKVNICCKKQFFVSFKDIGWNDWIIAPSGYHANYCEGECPSHIAGTSGSSLSFHSTVINHYRMRGHSPFANLKSCCVPTKLRPMSMLYYDDGQNIIKKDIQNMIVEECGCS
modifications: Inhibin beta A chain
- ALDH+ population [7, 9]: elimination
- size of the day 4 CD235a+ population [7, 9]: increase in the size
- size of the ALDH+PDGFRalpha+ population at day 4 [7, 10]: substantial increase
- proportion of MLC2V+CTNT+ cells [8, 9]: increase in the proportion
- proportion of CTNT+ cardiomyocytes generated [8, 10]: decrease

B2: BMP4: Bone Morphogenetic Protein 4, recombinant human (R&D) (protein, UniProt P12644 293-408, looked up)
Bone morphogenetic protein 4: SPKHHSQRARKKNKNCRRHSLYVDFSDVGWNDWIVAPPGYQAFYCHGDCPFPLADHLNSTNHAIVQTLVNSVNSSIPKACCVPTELSAISMLYLDEYDKVVLKNYQEMVVEGCGCR
- size of the CD235a+ population ([7]; BMP4 3-20 ng/mL, Activin A 12 ng/mL): little impact
- size of the ALDH+PDGFRalpha+ population [7, 11]: did not influence
- frequency of MLC2V+CTNT+ cells at day 20 ([8]; BMP4 20 ng/mL, Activin A 12 ng/mL): lowest frequency
- frequency of CTNT+ cells at day 20 [8, 11]: increase the frequency
